The values that follow come from US20260115285A1, “MEDICAMENT FOR TREATMENT AND/OR PREVENTION OF CANCER” (TORAY INDUSTRIES, INC., priority 2022, published 2026).

The subject of this assay is human colon cancer cell line (HCT116). Description: Example 4: THP-1-mediated phagocytic activity, anti-CAPRIN-1, anti-CD20 or anti-HER-2 antibody alone or with olaparib. It is filed as cell-based. The conditions noted are these: 1×10^4 HCT116 cocultured 1 hour with 1×10^5 THP-1, antibody final concentration 1 μg/mL (1 μM); for combination HCT116 cultured 2 days with olaparib 20 μM beforehand; N=3. As to the method:
The human-derived cancer cell used was a colon cancer cell line HCT116.
Each cancer cell line after the culture was dissociated with TrypLE Express (Thermo), and the cancer cells were stained by the addition of calcein-AM at a final concentration of 0.04 μg/mL and incubation at 37° C. for 10 minutes. […] Further, dead cells were stained with propidium iodide (PI) (final concentration: 0.1 μg/mL), followed by the measurement of fluorescence from the cells by flow cytometry. PI-positive dead cells were excluded from analysis. The human monocytic cells THP-1 recognize an antibody bound onto cancer cells and phagocytize the cancer cells. At that time, if the cancer cells have been stained with calcein-AM, the monocytic cells ingesting the cancer cells by phagocytosis also become positive to calcein-AM. Thus, the phagocytic activity in this evaluation system was calculated as the ratio (%) of APC-positive/calcein-AM-positive cells to the whole calcein-AM-positive population.

For the substance “anti-CD20 antibody: anti-CD20 antibody (“Rituxan”) purchased from Chugai Pharmaceutical Co., Ltd.”, the “phagocytic activity against cancer cells” value was at most 7%.
